PubChem BioAssay (NCI)
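GI50 is the concentration that inhibits growth by half. TGI: total growth inhibition.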

Legend:
Test in all cases: growth of human tumour cells (NCI), 384-well format
[1] = tested on: SF-295 CNS
[2] = tested on: PC-3 prostate
[3] = tested on: NCI/ADR-RES ovarian
[4] = tested on: TK-10 renal
[5] = tested on: DU-145 prostate
[6] = tested on: UACC-257 melanoma
[7] = tested on: RPMI-8226 leukemia
[8] = tested on: 786-0 renal
[9] = tested on: SF-268 CNS
[10] = tested on: HT29 colon
[11] = tested on: SN12C renal
[12] = tested on: U251 glioblastoma
[13] = tested on: OVCAR-3 ovarian
[14] = tested on: HL-60(TB) leukemia
[15] = tested on: MOLT-4 leukemia
[16] = tested on: SW-620 colon
[17] = tested on: MDA-MB-468 breast
[18] = tested on: OVCAR-8 ovarian
[19] = tested on: HOP-62 NSCLC
[20] = tested on: MALME-3M melanoma
[21] = tested on: T-47D breast
[22] = tested on: EKVX NSCLC
[23] = tested on: ACHN renal
[24] = tested on: SK-OV-3 ovarian
[25] = tested on: HCT-15 colon
[26] = tested on: MCF7 breast
[27] = tested on: SK-MEL-5 melanoma
[28] = tested on: KM12 colon
[29] = tested on: MDA-MB-435 melanoma
[30] = tested on: A498 renal
[31] = tested on: OVCAR-4 ovarian
[32] = tested on: M14 melanoma
[33] = tested on: SNB-19 CNS
[34] = tested on: BT-549 breast
[35] = tested on: COLO 205 colon
[36] = tested on: SR leukemia
[37] = tested on: NCI-H522 lung
[38] = tested on: SK-MEL-28 melanoma
[39] = tested on: NCI-H322M lung
[40] = tested on: HOP-92 NSCLC
[41] = tested on: IGROV1 ovarian
[42] = tested on: RXF 393 renal
[43] = tested on: NCI-H460 NSCLC
[44] = tested on: NCI-H23 lung
[45] = tested on: OVCAR-5 ovarian
[46] = tested on: UACC-62 melanoma
[47] = tested on: SF-539 CNS
[48] = tested on: NCI-H226 lung
[49] = tested on: CAKI-1 renal
[50] = tested on: A549 NSCLC
[51] = tested on: CCRF-CEM leukemia
[52] = tested on: HS 578T breast
[53] = tested on: MDA-MB-231 breast
[54] = tested on: HCC-2998 colon
[55] = tested on: SK-MEL-2 melanoma
[56] = tested on: K-562 leukemia
[57] = tested on: UO-31 renal
[58] = tested on: SNB-75 CNS
[59] = tested on: LOX IMVI melanoma

`O=C(O)C(=O)CBr` was tested, and the GI50 [1] was over 100 µM, the TGI [1] was over 100 µM and the GI50 [2] was over 100 µM. It also gave a TGI [2] of over 100 µM, a GI50 [3] of over 100 µM and a TGI [3] of over 100 µM. For the same molecule, the GI50 [4] was over 100 µM, the TGI [4] was over 100 µM and the GI50 [5] was over 100 µM. For the same molecule, the TGI [5] was over 100 µM, the GI50 [6] was over 100 µM and the TGI [6] was over 100 µM. The GI50 [7] was over 100 µM, the TGI [7] was over 100 µM and the GI50 [8] was over 100 µM. It also gave a TGI [8] of over 100 µM, a GI50 [9] of over 100 µM and a TGI [9] of over 100 µM. It also gave a GI50 [10] of over 100 µM, a TGI [10] of over 100 µM and a GI50 [11] of over 100 µM. For the same molecule, the TGI [11] was over 100 µM, the GI50 [12] was over 100 µM and the TGI [12] was over 100 µM. The GI50 [13] was over 100 µM, the TGI [13] was over 100 µM and the GI50 [14] was 23.9 µM. It also gave a TGI [14] of 45.3 µM, a GI50 [15] of over 100 µM and a TGI [15] of over 100 µM. It also gave a GI50 [16] of over 100 µM, a TGI [16] of over 100 µM and a GI50 [17] of 24.7 µM. The TGI [17] was 56.8 µM, the GI50 [18] was over 100 µM and the TGI [18] was over 100 µM. For the same molecule, the GI50 [19] was 34.7 µM, the TGI [19] was over 100 µM and the GI50 [20] was over 100 µM. For the same molecule, the TGI [20] was over 100 µM, the GI50 [21] was over 100 µM and the TGI [21] was over 100 µM. The GI50 [22] was over 100 µM, the TGI [22] was over 100 µM and the GI50 [23] was over 100 µM. The TGI [23] was over 100 µM, the GI50 [24] was over 100 µM and the TGI [24] was over 100 µM. For the same molecule, the GI50 [25] was over 100 µM, the TGI [25] was over 100 µM and the GI50 [26] was over 100 µM. It also gave a TGI [26] of over 100 µM, a GI50 [27] of over 100 µM and a TGI [27] of over 100 µM. The GI50 [28] was over 100 µM, the TGI [28] was over 100 µM and the GI50 [29] was over 100 µM. For the same molecule, the TGI [29] was over 100 µM, the GI50 [30] was over 100 µM and the TGI [30] was over 100 µM. The GI50 [31] was 32.3 µM, the TGI [31] was over 100 µM and the GI50 [32] was over 100 µM. For the same molecule, the TGI [32] was over 100 µM, the GI50 [33] was over 100 µM and the TGI [33] was over 100 µM. It also gave a GI50 [34] of over 100 µM, a TGI [34] of over 100 µM and a GI50 [35] of over 100 µM. The TGI [35] was over 100 µM, the GI50 [36] was over 100 µM and the TGI [36] was over 100 µM. For the same molecule, the GI50 [37] was 23.5 µM, the TGI [37] was 47.8 µM and the GI50 [38] was over 100 µM. It also gave a TGI [38] of over 100 µM, a GI50 [39] of over 100 µM and a TGI [39] of over 100 µM. For the same molecule, the GI50 [40] was over 100 µM, the TGI [40] was over 100 µM and the GI50 [41] was over 100 µM. It also gave a TGI [41] of over 100 µM, a GI50 [42] of 22.5 µM and a TGI [42] of 57.1 µM. It also gave a GI50 [43] of over 100 µM, a TGI [43] of over 100 µM and a GI50 [44] of 55.7 µM. The TGI [44] was over 100 µM, the GI50 [45] was over 100 µM and the TGI [45] was over 100 µM. For the same molecule, the GI50 [46] was over 100 µM, the TGI [46] was over 100 µM and the GI50 [47] was over 100 µM. It also gave a TGI [47] of over 100 µM, a GI50 [48] of over 100 µM and a TGI [48] of over 100 µM. The GI50 [49] was over 100 µM, the TGI [49] was over 100 µM and the GI50 [50] was over 100 µM. It also gave a TGI [50] of over 100 µM, a GI50 [51] of 43.2 µM and a TGI [51] of over 100 µM. For the same molecule, the GI50 [52] was over 100 µM, the TGI [52] was over 100 µM and the GI50 [53] was over 100 µM. It also gave a TGI [53] of over 100 µM, a GI50 [54] of over 100 µM and a TGI [54] of over 100 µM. The GI50 [55] was over 100 µM and the TGI [55] was over 100 µM.

Work on `Cn1ncc(-c2ccc3c(=O)[nH]nc(CN)c3c2)c1-c1c(F)cc2ccccc2c1C#N` yielded a GI50 [1] of 4.96 µM, a TGI [1] of 17.2 µM and a GI50 [2] of 3.96 µM. It also gave a TGI [2] of 14.7 µM, a GI50 [3] of 5.21 µM and a TGI [3] of 25.1 µM. For the same molecule, the GI50 [4] was 8.98 µM, the TGI [4] was 21.2 µM and the GI50 [5] was 3.87 µM. It also gave a TGI [5] of 14.9 µM, a GI50 [6] of 2.64 µM and a TGI [6] of 8.43 µM. The GI50 [7] was 1.45 µM, the TGI [7] was 3.02 µM and the GI50 [8] was 2.13 µM. For the same molecule, the TGI [8] was 12.6 µM, the GI50 [9] was 2.4 µM and the TGI [9] was 12 µM. It also gave a GI50 [10] of 2.64 µM, a TGI [10] of 11.8 µM and a GI50 [11] of 2.17 µM. For the same molecule, the TGI [11] was 9.35 µM, the GI50 [56] was 2.11 µM and the TGI [56] was 8.63 µM. The GI50 [13] was 1.77 µM, the TGI [13] was 5.25 µM and the GI50 [14] was 1.72 µM. The TGI [14] was 3.29 µM, the GI50 [15] was 0.0298 µM and the TGI [15] was 0.101 µM. The GI50 [16] was 2.54 µM, the TGI [16] was 11.5 µM and the GI50 [17] was 1.31 µM. The TGI [17] was 3.44 µM, the GI50 [18] was 2.59 µM and the TGI [18] was 15.2 µM. It also gave a GI50 [19] of 2.41 µM, a TGI [19] of 13 µM and a GI50 [20] of 1.59 µM. For the same molecule, the TGI [20] was 5.5 µM, the GI50 [21] was 1.08 µM and the TGI [21] was 6.19 µM. For the same molecule, the GI50 [22] was 5.14 µM, the TGI [22] was 18.7 µM and the GI50 [57] was 6.43 µM. It also gave a TGI [57] of 19.6 µM, a GI50 [23] of 2.3 µM and a TGI [23] of 11.2 µM. It also gave a GI50 [24] of 4.57 µM, a TGI [24] of 16.6 µM and a GI50 [25] of 2.28 µM. It also gave a TGI [25] of 10.8 µM, a GI50 [58] of 2.55 µM and a TGI [58] of 10.3 µM. For the same molecule, the GI50 [26] was 1.11 µM, the TGI [26] was 9.34 µM and the GI50 [27] was 1.18 µM. For the same molecule, the TGI [27] was 3.27 µM, the GI50 [28] was 2.63 µM and the TGI [28] was 11.3 µM. For the same molecule, the GI50 [29] was 2.08 µM, the TGI [29] was 4.61 µM and the GI50 [30] was 2.22 µM. It also gave a TGI [30] of 11 µM, a GI50 [31] of 1.3 µM and a TGI [31] of 7.5 µM. The GI50 [32] was 2.83 µM, the TGI [32] was 8.76 µM and the GI50 [33] was 4.87 µM. The TGI [33] was 18.8 µM, the GI50 [34] was 2.9 µM and the TGI [34] was 11 µM. For the same molecule, the GI50 [35] was 2.9 µM, the TGI [35] was 15.3 µM and the GI50 [36] was 0.0374 µM. For the same molecule, the TGI [36] was 0.313 µM, the GI50 [37] was 2.37 µM and the TGI [37] was 6.27 µM. The GI50 [38] was 3.09 µM, the TGI [38] was 12.6 µM and the GI50 [39] was 4.74 µM. It also gave a TGI [39] of 18.3 µM, a GI50 [40] of 1.18 µM and a TGI [40] of 6.91 µM. It also gave a GI50 [41] of 3.42 µM, a TGI [41] of 14 µM and a GI50 [42] of 1.69 µM. It also gave a TGI [42] of 8.25 µM, a GI50 [59] of 2.73 µM and a TGI [59] of 11.1 µM. The GI50 [43] was 1.27 µM, the TGI [43] was 11.5 µM and the GI50 [44] was 2.19 µM. The TGI [44] was 7.34 µM, the GI50 [45] was 4.58 µM and the TGI [45] was 17.1 µM. The GI50 [46] was 2.97 µM, the TGI [46] was 14.2 µM and the GI50 [47] was 1.84 µM. It also gave a TGI [47] of 5.38 µM, a GI50 [48] of 3.4 µM and a TGI [48] of 15.1 µM. The GI50 [49] was 3.23 µM, the TGI [49] was 13.9 µM and the GI50 [50] was 2.8 µM. The TGI [50] was 14 µM, the GI50 [51] was 1.15 µM and the TGI [51] was 3.04 µM. It also gave a GI50 [52] of 1.76 µM, a TGI [52] of 4.22 µM and a GI50 [53] of 2.1 µM. It also gave a TGI [53] of 14.4 µM, a GI50 [54] of 3.08 µM and a TGI [54] of 14 µM.
